Laboratory results from ChEMBL document CHEMBL3763077, “Discovery of pyrrolospirooxindole derivatives as novel cyclin dependent kinase 4 (CDK4) inhibitors by catalyst-free, green approach” (Eur J Med Chem, 2016).
pIC50: −log10 of the molar value.

How the values were obtained:
Assay type in all cases: functional, cell-based
A549 = test: Cytotoxicity against human A549 cells assessed as cell growth inhibition after 48 hrs by MTT assay; settings: A549, 48 h
[1] = Cytotoxicity against human DU145 cells assessed as cell growth inhibition after 48 hrs by MTT assay; settings: DU-145, 48 h
MDA-MB-231 = test: Cytotoxicity against human MDA-MB-231 cells assessed as cell growth inhibition after 48 hrs by MTT assay; settings: MDA-MB-231, 48 h
HT-29 = test: Cytotoxicity against human HT-29 cells assessed as cell growth inhibition after 48 hrs by MTT assay; settings: HT-29, 48 h
HeLa = test: Cytotoxicity against human HeLa cells assessed as cell growth inhibition after 48 hrs by MTT assay

Row | Structure (SMILES) | pIC50 (A549) | pIC50 [1] | pIC50 (MDA-MB-231) | pIC50 (HT-29) | pIC50 (HeLa)
1 | O=C1N(Cc2ccccc2)c2ccc(Br)cc2C12Nc1ccccc1-n1cccc12 (stereo not given) | 4.78 | 4.95 | 4.63 | 4.74 | 4.68
2 | O=C1N(Cc2ccc3c(c2)OCO3)c2ccccc2C12Nc1ccccc1-n1cccc12 (stereo not given) | 5.12 | 5.40 | 4.52 | 4.82 | 5.34
3 | O=C1Nc2ccccc2C12Nc1ccccc1-n1cccc12 (stereo not given) | 5.15 | 5.22 | 5.05 | 5.39 | 5.34
4 | O=C1Nc2ccc([N+](=O)[O-])cc2C12Nc1ccccc1-n1cccc12 (stereo not given) | 4.79 | 4.64 | 4.76 | 4.81 | 4.89
5 | COc1ccc2c(c1)C1(Nc3ccccc3-n3cccc31)C(=O)N2 (stereo not given) | 4.86 | 4.96 | 4.80 | 4.83 | 4.83
6 | O=C1Nc2ccc(F)cc2C12Nc1ccccc1-n1cccc12 (stereo not given) | 4.63 | 4.90 | 4.50 | 4.80 | 4.82
7 | O=C1Nc2ccc(Cl)cc2C12Nc1ccccc1-n1cccc12 (stereo not given) | 5.32 | 5.32 | 4.58 | 4.96 | 5.31
